# Columns and labels:
# Experiment in all cases: relative viability (nuclei count vs DMSO), 5 days (fraction); higher = more cells survive
# ChaGo-K-1 = system: ChaGo-K-1
# Procedure, shortened: (§1)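 Lung cancer cell lines, seeded in 1536-well plates, were treated the following day by pin tool with a single drug or with five library-drug doses (not always all listed) in √10 steps on top of a fixed anchor-drug dose. Cells were fixed and nuclei stained in one step after 5 days, and nuclei were counted. Relative viability is the nuclei count for treated wells divided by that for vehicle wells, reported as medians of duplicate plates.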
# HCC-827 = system: HCC-827
# Procedure, shortened: as §1
# NCI-H1755 = system: NCI-H1755
# Procedure, shortened: as §1
# NCI-H2347 = system: NCI-H2347
# Procedure, shortened: as §1
# NCI-H322M = system: NCI-H322M
# Procedure, shortened: as §1
# NCI-H520 = system: NCI-H520
# Procedure, shortened: as §1
# LXF-289 = system: LXF-289
# Procedure, shortened: as §1
# RERF-LC-KJ = system: RERF-LC-KJ
# Procedure, shortened: as §1
# ABC-1 = system: ABC-1
# Procedure, shortened: as §1
# NCI-H1792 = system: NCI-H1792
# Procedure, shortened: as §1
# NCI-H3122 = system: NCI-H3122
# Procedure, shortened: as §1
# LCLC-103H = system: LCLC-103H
# Procedure, shortened: as §1
# LU99A = system: LU99A
# Procedure, shortened: as §1
# NCI-H2126 = system: NCI-H2126
# Procedure, shortened: as §1
# HCC-44 = system: HCC-44
# Procedure, shortened: as §1
# CAL-12T = system: CAL-12T
# Procedure, shortened: as §1
# SK-LU-1 = system: SK-LU-1
# Procedure, shortened: as §1
# NCI-H1666 = system: NCI-H1666
# Procedure, shortened: as §1
compound,measurement,setting,value
CCNC(=O)c1noc(-c2cc(C(C)C)c(O)cc2O)c1-c1ccc(CN2CCOCC2)cc1 [Luminespib] + CC(C)C[C@H](NC(=O)[C@H](Cc1ccccc1)NC(=O)c1cnccn1)B(O)O [Bortezomib] (partner 0.002 µM),relative viability,ChaGo-K-1; first compound 0.002 µM,1.11
same,relative viability,ChaGo-K-1; first compound 0.02 µM,0.998
same,relative viability,ChaGo-K-1; first compound 0.06325 µM,0.528
same,relative viability,ChaGo-K-1; first compound 0.2 µM,0.294
same,relative viability,HCC-827; first compound 0.002 µM,1.04
same,relative viability,HCC-827; first compound 0.006325 µM,0.999
same,relative viability,HCC-827; first compound 0.02 µM,1.11
same,relative viability,HCC-827; first compound 0.06325 µM,1.22
same,relative viability,HCC-827; first compound 0.2 µM,0.66
same,relative viability,NCI-H1755; first compound 0.002 µM,0.992
same,relative viability,NCI-H1755; first compound 0.006325 µM,0.909
same,relative viability,NCI-H1755; first compound 0.02 µM,0.954
same,relative viability,NCI-H1755; first compound 0.06325 µM,0.528
same,relative viability,NCI-H1755; first compound 0.2 µM,0.169
same,relative viability,NCI-H2347; first compound 0.002 µM,0.947
same,relative viability,NCI-H2347; first compound 0.006325 µM,0.601
same,relative viability,NCI-H2347; first compound 0.02 µM,0.737
same,relative viability,NCI-H2347; first compound 0.06325 µM,0.587
same,relative viability,NCI-H2347; first compound 0.2 µM,0.36
same,relative viability,NCI-H322M; first compound 0.002 µM,1.21
same,relative viability,NCI-H322M; first compound 0.006325 µM,1.27
same,relative viability,NCI-H322M; first compound 0.02 µM,1.05
same,relative viability,NCI-H322M; first compound 0.06325 µM,1.32
same,relative viability,NCI-H322M; first compound 0.2 µM,0.814
same,relative viability,NCI-H520; first compound 0.002 µM,0.556
same,relative viability,NCI-H520; first compound 0.006325 µM,0.51
same,relative viability,NCI-H520; first compound 0.02 µM,0.41
same,relative viability,NCI-H520; first compound 0.06325 µM,0.103
same,relative viability,NCI-H520; first compound 0.2 µM,0.109
same,relative viability,LXF-289; first compound 0.002 µM,0.969
same,relative viability,LXF-289; first compound 0.006325 µM,0.951
same,relative viability,LXF-289; first compound 0.02 µM,1.04
same,relative viability,LXF-289; first compound 0.06325 µM,0.373
same,relative viability,LXF-289; first compound 0.2 µM,0.105
same,relative viability,RERF-LC-KJ; first compound 0.002 µM,1.06
same,relative viability,RERF-LC-KJ; first compound 0.006325 µM,1.13
same,relative viability,RERF-LC-KJ; first compound 0.02 µM,1.06
same,relative viability,RERF-LC-KJ; first compound 0.06325 µM,0.69
same,relative viability,RERF-LC-KJ; first compound 0.2 µM,0.268
same,relative viability,ABC-1; first compound 0.002 µM,0.258
same,relative viability,ABC-1; first compound 0.006325 µM,0.315
same,relative viability,ABC-1; first compound 0.02 µM,0.238
same,relative viability,ABC-1; first compound 0.06325 µM,0.267
same,relative viability,ABC-1; first compound 0.2 µM,0.255
same,relative viability,NCI-H1792; first compound 0.002 µM,0.93
same,relative viability,NCI-H1792; first compound 0.006325 µM,0.888
same,relative viability,NCI-H1792; first compound 0.02 µM,0.633
same,relative viability,NCI-H1792; first compound 0.06325 µM,0.478
same,relative viability,NCI-H1792; first compound 0.2 µM,0.36
same,relative viability,NCI-H3122; first compound 0.002 µM,1.01
same,relative viability,NCI-H3122; first compound 0.006325 µM,1.01
same,relative viability,NCI-H3122; first compound 0.02 µM,1.05
same,relative viability,NCI-H3122; first compound 0.06325 µM,0.165
same,relative viability,NCI-H3122; first compound 0.2 µM,0.199
same,relative viability,LCLC-103H; first compound 0.002 µM,1.07
same,relative viability,LCLC-103H; first compound 0.006325 µM,1.01
same,relative viability,LCLC-103H; first compound 0.02 µM,0.931
same,relative viability,LCLC-103H; first compound 0.06325 µM,1
same,relative viability,LCLC-103H; first compound 0.2 µM,0.676
same,relative viability,LU99A; first compound 0.002 µM,1.3
same,relative viability,LU99A; first compound 0.006325 µM,1.11
same,relative viability,LU99A; first compound 0.02 µM,0.538
same,relative viability,LU99A; first compound 0.06325 µM,0.105
same,relative viability,LU99A; first compound 0.2 µM,0.117
same,relative viability,NCI-H2126; first compound 0.002 µM,1.09
same,relative viability,NCI-H2126; first compound 0.006325 µM,1.03
same,relative viability,NCI-H2126; first compound 0.02 µM,0.79
same,relative viability,NCI-H2126; first compound 0.06325 µM,1.07
same,relative viability,NCI-H2126; first compound 0.2 µM,0.823
same,relative viability,HCC-44; first compound 0.002 µM,0.895
same,relative viability,HCC-44; first compound 0.006325 µM,0.881
same,relative viability,HCC-44; first compound 0.02 µM,1.09
same,relative viability,HCC-44; first compound 0.06325 µM,0.139
same,relative viability,HCC-44; first compound 0.2 µM,0.145
same,relative viability,CAL-12T; first compound 0.002 µM,1.04
same,relative viability,CAL-12T; first compound 0.006325 µM,0.929
same,relative viability,CAL-12T; first compound 0.02 µM,0.539
same,relative viability,CAL-12T; first compound 0.06325 µM,0.147
same,relative viability,CAL-12T; first compound 0.2 µM,0.149
same,relative viability,SK-LU-1; first compound 0.002 µM,1.19
same,relative viability,SK-LU-1; first compound 0.006325 µM,1.02
same,relative viability,SK-LU-1; first compound 0.02 µM,0.716
same,relative viability,SK-LU-1; first compound 0.06325 µM,0.199
same,relative viability,SK-LU-1; first compound 0.2 µM,0.203
same,relative viability,NCI-H1666; first compound 0.002 µM,0.871
same,relative viability,NCI-H1666; first compound 0.006325 µM,0.86
same,relative viability,NCI-H1666; first compound 0.02 µM,0.74
same,relative viability,NCI-H1666; first compound 0.06325 µM,0.725
same,relative viability,NCI-H1666; first compound 0.2 µM,0.74

# Source: the supplement of paper PMC10307832
